In brackets after ≈: the same amount, converted by molar mass.
Columns and labels:
Experiment in all cases: In vitro antibacterial evaluation: minimum inhibitory concentration (MIC), broth dilution method
Type in all cases: cell-based
Details in all cases: broth dilution, 18 hours at 35° C.
[1] = system: Enterococcus sp.
Procedure, shortened: (§1)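 An MIC is reported for each organism as the least concentration giving inhibition, using broth dilution over 64-0.06 μg/mL with a 5×10^5 CFU/mL inoculum.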

[2] = system: Staphylococcus sp.
Procedure, shortened: as §1

[3] = system: Streptococcus sp.
Procedure, shortened: as §1

[4] = system: Escherichia coli

## CC(c1ccccc1)C1NC(=O)CNC(=O)C(CO)NC(=O)C(C(O)C2CNC(=N)N2C2OC(CO)C(O)C(O)C2O)NC(=O)C(C(O)C2CNC(=N)N2)NC(=O)C(Cc2ccc3oc(SCc4ccc5ccccc5c4)nc3c2)NC1=O (stereo not drawn) [Example 46, Cyclo[3-[2-[(naphthylmethyl)thio]-1,3-benzoxazol-5-yl]alanyl-3-(2-iminoimidazolidin-4-yl)-seryl-3-(3-hexopyranosyl-2-iminoimidazolidin-4-yl)serylserylglycyl-β-methylphenylalanyl]]
[1]; Enterococcus avium (GC 4558)
  MIC Enterococcus avium (GC 4558): 4 µg/mL (≈ 3.42 µM)
[1]; Enterococcus faecalis (ATCC 29212)
  MIC Enterococcus faecalis (ATCC 29212): 8 µg/mL (≈ 6.85 µM)
[1]; Enterococcus faecalis (GC 2242)
  MIC Enterococcus faecalis (GC 2242): 8 µg/mL (≈ 6.85 µM)
[1]; Enterococcus faecalis (GC 2691)
  MIC Enterococcus faecalis (GC 2691): 16 µg/mL (≈ 13.7 µM)
[1]; Enterococcus faecalis (GC 3059)
  MIC Enterococcus faecalis (GC 3059): 32 µg/mL (≈ 27.4 µM)
[1]; Enterococcus faecalis (GC 4552)
  MIC Enterococcus faecalis (GC 4552): 8 µg/mL (≈ 6.85 µM)
[1]; Enterococcus faecalis (GC 4553)
  MIC Enterococcus faecalis (GC 4553): 4 µg/mL (≈ 3.42 µM)
[1]; Enterococcus faecalis (GC 4554)
  MIC Enterococcus faecalis (GC 4554): 16 µg/mL (≈ 13.7 µM)
[1]; Enterococcus faecalis (GC 6189)
  MIC Enterococcus faecalis (GC 6189): 16 µg/mL (≈ 13.7 µM)
[1]; Enterococcus faecium (GC 2243)
  MIC Enterococcus faecium (GC 2243): 4 µg/mL (≈ 3.42 µM)
[1]; Enterococcus faecium (GC 4556)
  MIC Enterococcus faecium (GC 4556): 16 µg/mL (≈ 13.7 µM)
[1]; Enterococcus faecium (GC 4557)
  MIC Enterococcus faecium (GC 4557): 8 µg/mL (≈ 6.85 µM)
[1]
  MIC Enterococcus avium (GC 4558): 4 µg/mL (≈ 3.42 µM)
  MIC Enterococcus faecalis (ATCC 29212): 8 µg/mL (≈ 6.85 µM)
  MIC Enterococcus faecalis (GC 2242): 8 µg/mL (≈ 6.85 µM)
  MIC Enterococcus faecalis (GC 2691): 16 µg/mL (≈ 13.7 µM)
  MIC Enterococcus faecalis (GC 3059): 32 µg/mL (≈ 27.4 µM)
  MIC Enterococcus faecalis (GC 4552): 8 µg/mL (≈ 6.85 µM)
  MIC Enterococcus faecalis (GC 4553): 4 µg/mL (≈ 3.42 µM)
  MIC Enterococcus faecalis (GC 4554): 16 µg/mL (≈ 13.7 µM)
  MIC Enterococcus faecalis (GC 6189): 16 µg/mL (≈ 13.7 µM)
  MIC Enterococcus faecium (GC 2243): 4 µg/mL (≈ 3.42 µM)
  MIC Enterococcus faecium (GC 4556): 16 µg/mL (≈ 13.7 µM)
  MIC Enterococcus faecium (GC 4557): 8 µg/mL (≈ 6.85 µM)
[2]
  MIC Coagulase Negative Staphylococcus (GC 4547): 4 µg/mL (≈ 3.42 µM)
  MIC Coagulase Negative Staphylococcus (GC 4548): 8 µg/mL (≈ 6.85 µM)
  MIC Coagulase Negative Staphylococcus (GC 4549): 2 µg/mL (≈ 1.71 µM)
  MIC Coagulase Negative Staphylococcus (GC 4551): 4 µg/mL (≈ 3.42 µM)
  MIC Staphylococcus aureus SMITH (GC 4543): 4 µg/mL (≈ 3.42 µM)
  MIC Staphylococcus haemolyticus (GC 4546): 8 µg/mL (≈ 6.85 µM)
[2]; strain SMITH GC 4543
  MIC Staphylococcus aureus-SMITH (GC 4543): 4 µg/mL (≈ 3.42 µM)
[3]; Streptococcus agalactiae (GC 4564)
  MIC Streptococcus agalactiae (GC 4564): 8 µg/mL (≈ 6.85 µM)
[3]; Streptococcus pneumoniae (ATCC 6301)
  MIC Streptococcus pneumoniae (ATCC 6301): 8 µg/mL (≈ 6.85 µM)
[3]; Streptococcus pneumoniae (GC 1894)
  MIC Streptococcus pneumoniae (GC 1894): 8 µg/mL (≈ 6.85 µM)
[3]; Streptococcus pneumoniae (GC 4565)
  MIC Streptococcus pneumoniae (GC 4565): 8 µg/mL (≈ 6.85 µM)
[3]; Streptococcus pyogenes (GC 4563)
  MIC Streptococcus pyogenes (GC 4563): 1 µg/mL (≈ 0.856 µM)
[3]
  MIC Streptococcus agalactiae (GC 4564): 8 µg/mL (≈ 6.85 µM)
  MIC Streptococcus pneumoniae (ATCC 6301): 8 µg/mL (≈ 6.85 µM)
  MIC Streptococcus pneumoniae (GC 1894): 8 µg/mL (≈ 6.85 µM)
  MIC Streptococcus pneumoniae (GC 4565): 8 µg/mL (≈ 6.85 µM)
  MIC Streptococcus pyogenes (GC 4563): 1 µg/mL (≈ 0.856 µM)
[4]
  MIC Escherichia coli (ATCC 25922): 64 µg/mL (≈ 54.8 µM)
  MIC Escherichia coli (GC 4559): 64 µg/mL (≈ 54.8 µM)
  MIC Escherichia coli (GC 4560): 16 µg/mL (≈ 13.7 µM)

Source: patent publication US8247211B2, “Glycopeptide antibiotics” (American Cyanamid Company, priority 2001, dated 2012)
